This note sets out measurements from patent US20160083424A1, “COMPOSITIONS AND METHODS FOR TARGETING ANTIGEN-PRESENTING CELLS” (OSLO UNIVERSITETSSYKEHUS HF, priority 2013, published 2016).

In experiment [1] the test system is autologous CD4 or CD8 T cells. Nature of the experiment: Autologous stimulation of T lymphocytes by DCs exposed to targeted pp65 peptides, [3H] thymidine incorporation. The conditions noted are these: semi mDCs loaded at 4° C., HLA-A2+/CMV positive donors, 5 days. It counts as cell-based, human. The procedure:
(§1) Peptides at a concentration of 5 μg/ml were incubated with semi mDCs from HLA-A2/CMV-positive donors for 60 min at 4° C. Subsequently, they were washed to remove unbound peptides. Autologous stimulation was done in 96-well tissue culture plates in X-vivo 15 medium. Briefly, DCs were mixed with 10^5 autologous CD4 or CD8 T cells at a DC/lymphocytes ratios of 1/5 and 1/10 in a final volume of 250 μl. Cells were incubated for 5 days and then they were pulsed with [^3H] thymidine and harvested 16 h later. [^3H] thymidine incorporation was measured in a β-scintillation counter. In some experiments, the cells were cultured for 8 days and then stained with dextramers specific for pp65 NLVPMVATV (SEQ ID NO:19) epitope.
The capacity of the NW-pp65 fusion peptide (60-mer) to activate T cells from HLA-A2+/CMV positive donors was evaluated. It should be noted that the 48-mer pp65 peptide contains both MHC class I (e.g. NLVPMVATV) (SEQ ID NO:19) and class II (e.g. AGILARNLVPMVATV (SEQ ID NO:23), FFWDANDIYRI (SEQ ID NO:24)) epitopes, allowing the detection of CD4 and CD8 T-cell responses (24-26). […] All cultures were incubated at 37° C. for 5 days and T-cell activation was determined by measuring their proliferation potential (FIG. 6A). […]

Experiment [2] concerns CD8 T cells specific for the NLVPMVATV epitope. Nature of the experiment: Dextramer staining of CD8 T cells after stimulation with peptide-exposed DCs. In kind it is cell-based, human. The conditions noted are these: DC-stimulated CD8 T cells, CMV positive donors, equal molar concentrations, n=3. Here is the method:
as §1
Dextramers with CMV (NLVPMVATV) (SEQ ID NO:19) and HIV (ILKEPVHGV) (SEQ ID NO:22) HLA-A2 specific antigens were obtained from Immudex (Copenhagen, Denmark). Antibodies against human CD8, CD19 and CD56 were obtained from eBioscience (San Diego, Calif., USA). […] Cells were washed and resuspended in SB containing 1% paraformaldehyd and analyzed on a BD SLR II flow cytometer. The data were analyzed using FCS Express (De Novo Software, Los Angeles, Calif., USA).

Experiment [3] relates to pp65-specific naïve T cells. Briefly: Induction of CMV-pp65-specific T cells from naive donor repertoire, dextramer staining. In kind it is cell-based, human. The note with it: CD45RO-depleted PBMCs, HLA-A2+/CMV negative donors, IL-7, representative example. The procedure:
(§2) PBMC from HLA-A2/CMV+ donors were thawed, washed and then incubated with the peptides (5 μg/ml) for 60 min at 4° C. Subsequently, the cells were washed twice and then plated at 2×10^5 cells per well in 96-well tissue culture plate. Cells were cultured for 5 days and subsequently they were pulsed with [^3H] thymidine and harvested 16 h later. In some experiments, the cells were cultured for 12 days and then stained with dextramers specific for pp65 NLVPMVATV (SEQ ID NO:19) epitope. Monocyte-depleted PBMCs were also used. To analyze primary immune responses against pp65 protein, PBMCs from HLA-A2+/CMV-negative donors were used. Autologous DCs were incubated with either NW-pp65 or GA-pp65 peptide (5 μg/ml) at 4° C. for 1 h, followed by three washes to remove unbound peptides. Subsequently, the cells were incubated with CD45RO-depleted PBMC (responder cells) and co-cultured for 10 days at ratio 1/10 (DC to responder cells) in X-vivo 15 medium supplemented with 10 ng/ml human IL-7 for 10 days. […]
Dextramers with CMV (NLVPMVATV) (SEQ ID NO:19) and HIV (ILKEPVHGV) (SEQ ID NO:22) HLA-A2 specific antigens were obtained from Immudex (Copenhagen, Denmark). […] Cells were washed and resuspended in SB containing 1% paraformaldehyd and analyzed on a BD SLR II flow cytometer. The data were analyzed using FCS Express (De Novo Software, Los Angeles, Calif., USA). […]

The next experiment concerns PBMCs. Nature of the experiment: Autologous stimulation of PBMCs with pp65 targeted peptides, [3H] thymidine incorporation. It counts as cell-based, human. The note with it: whole PBMCs, peptides at 4° C., 5 days at 37° C. The procedure:
as §2, with “days. After 2 rounds of stimulation (8 days each) with autologous DC loaded with peptides, the cells were stained with dextramers specific for pp65 NLVPMVATV (SEQ ID NO:19) epitope. To test spontaneous uptake of peptides by DCs, PBMCs from HLA-A2+/CMV positive donors were incubated at 37° C. with various concentrations of untargeted or targeted pp65 peptide for 90 min.” for “days.”
Background: Incorporation of labelled thymidine or its analogues reports DNA synthesis.

The subject of experiment [4] is CD8 T cells against NLVPMVATV epitope. Briefly: Dextramer staining of CD8 T cells after PBMC stimulation with pp65 peptides. In kind it is cell-based, human. The procedure:
PBMC from HLA-A2/CMV+ donors were thawed, washed and then incubated with the peptides (5 μg/ml) for 60 min at 4° C. Subsequently, the cells were washed twice and then plated at 2×10^5 cells per well in 96-well tissue culture plate. Cells were cultured for 5 days and subsequently they were pulsed with [^3H] thymidine and harvested 16 h later. In some experiments, the cells were cultured for 12 days and then stained with dextramers specific for pp65 NLVPMVATV (SEQ ID NO:19) epitope. Monocyte-depleted PBMCs were also used. To analyze primary immune responses against pp65 protein, PBMCs from HLA-A2+/CMV-negative donors were used. Autologous DCs were incubated with either NW-pp65 or GA-pp65 peptide (5 μg/ml) at 4° C. for 1 h, followed by three washes to remove unbound peptides. Subsequently, the cells were incubated with CD45RO-depleted PBMC (responder cells) and co-cultured for 10 days at ratio 1/10 (DC to responder cells) in X-vivo 15 medium supplemented with 10 ng/ml human IL-7 for 10 days. After 2 rounds of stimulation (8 days each) with autologous DC loaded with peptides, the cells were stained with dextramers specific for pp65 NLVPMVATV (SEQ ID NO:19) epitope. To test spontaneous uptake of peptides by DCs, PBMCs from HLA-A2+/CMV positive donors were incubated at 37° C. with various concentrations of untargeted or targeted pp65 peptide for 90 min. Subsequently, the cells were washed to remove unbound peptides and cultured at 37° C. for 12 days and then stained with dextramers specific for pp65 NLVPMVATV (SEQ ID NO:19) epitope.
Dextramers with CMV (NLVPMVATV) (SEQ ID NO:19) and HIV (ILKEPVHGV) (SEQ ID NO:22) HLA-A2 specific antigens were obtained from Immudex (Copenhagen, Denmark). Antibodies against human CD8, CD19 and CD56 were obtained from eBioscience (San Diego, Calif., USA). Briefly, around 10^6 cells were washed and resuspended in 50 μl staining buffer SB (PBS with 0.1% human serum albumin and 0.1% NaN3) containing 1 mg/ml aggregated α-globulin and then stained with dextramer for 10 min in the dark at room temperature. Subsequently, antibodies against CD8, CD19 and CD56 were added and incubation continued for additional 20 min. Cells were washed and resuspended in SB containing 1% paraformaldehyd and analyzed on a BD SLR II flow cytometer. The data were analyzed using FCS Express (De Novo Software, Los Angeles, Calif., USA).
Monocytes have the capacity to differentiate into macrophages or inflammatory DCs in-vitro and in-vivo (Auffray et al., (2009) Annu Rev. Immunol. 27, 669-92). Given that the NW peptide bound to blood monocytes, it was investigated whether this binding affects T-cell activation. Therefore, proliferation assays were performed with whole PBMCs. […]

Experiment [5] concerns PBMC cultures from CMV-positive donors. Briefly: IFN-γ production in PBMC cultures. The conditions noted are these: PBMCs from HLA-A2+/CMV positive. In kind it is cell-based, human. The procedure:
(A) PBMCs from HLA-A2+/CMV-positive donors were incubated with the indicated fusion peptides for 60 min at 4° C., washed and then incubated at 37° C. for […]. T-cell proliferation was monitored by thymidine incorporation. (B) Dextramer staining of CD8 T cells against NLVPMVATV (SEQ ID NO:19) epitope. (C) As in A and B, but monocyte-depleted PBMCs were used. (D) INF-γ and IL-10 levels in PBMC culture supernatants determined by ELISA.
Next, the immunostimulatory potential of the NW-pp65 fusion peptide was evaluated by assessing its ability to stimulate the overall IFN-γ and IL-10 production in PBMC cultures from CMV-positive donors (FIG. 8D).

In the next experiment the test system is iDCs. Briefly: Binding and internalization of peptide-siRNA conjugates by microscopy. It counts as cell-based, human. The procedure:
Then the medium was replaced with fresh medium and the cells were incubated with the peptides (5 μg/ml) for 60 min at 37° C. followed by 5 min incubation with Hoechst 33342 (Invitrogen Dynal AS, Oslo, Norway). The cells were washed twice with PBS and fixed with 4% paraformaldehyde for 15 min at 4° C. After washing, slides were covered with Dako cytomation fluorescent mounting medium and then images were taken with either epifluorescence (Leica DM RHC, Leica Microscopy As, Oslo, Norway) or confocal microscopy (Zeiss LSM 510, […]).
One of the major challenges to the clinical development of gene silencing by small interfering RNA (siRNA) is its effective delivery to target cells (Whitehead et al., Nat Rev Drug Discov 8, 129-138). Given the effective internalization of NW peptide by DCs, its potential to direct siRNAs to DCs was evaluated. First, a fluorescence labeled siRNA targeting mouse IL-10 was covalently conjugated to the NW-peptide (NW peptide with GGGSC (SEQ ID NO:43) linker) through a thiol linkage and then the binding of the conjugates to iDCs was investigated by epifluorescence microcopy. In contrast to free siRNA molecules, the peptide siRNA conjugates bound to DCs (FIG. 10A).

Experiment [6] has as its target NW peptide receptor (human). Nature of the experiment: competition with NW phage binding to monocytes, flow cytometry. (In general: In flow cytometry, cells or beads pass a laser one at a time.)
Experiment [7] addresses NW peptide receptor (human). Briefly: competition with NW phage on monocytes, flow cytometry; C3 = 8 µM peptide.
Experiment [8] concerns the target NW peptide receptor (human). Briefly: competition with NW phage on monocytes, flow cytometry.

Where no end group is shown, it is not given here. siRNA = not defined here

As for “GALDTTHHRPWTGCFTWPPWQAGILARNLVPMVATVQGQNLKYQEFFWDANDIYRIFAEL [GA-60-mer, 48-mer CMV pp65 peptide fused to control peptide, reference compound]”, in experiment [1], the “T-cell activation (proliferation, [3H]-thymidine)” value was “no significant effect”. Further, in [2], the “dextramer-positive CD8 T cells specific for NLVPMVATV” value turned out to be 0.51%. In addition, the “pp65-specific naïve T cells (dextramer staining)” value in experiment [3] stood at 0.01%. Also, the “T-cell proliferation ([3H]-thymidine)” value in the experiment with PBMCs is given as “did not”. Moreover, the “CTL response (dextramer staining)” value in [4] (monocyte-depleted PBMCs) came to 0.53%; in experiment [4] (whole PBMCs, n=3), 0.45%. Moreover, in experiment [5], the “proportion of CD8 and CD4 T cells that produced IFN-γ” value is listed as “very low response”.

For the molecule “peptide siRNA conjugates: fluorescence labeled siRNA targeting mouse IL-10 covalently conjugated to NW peptide with GGGSC linker through a thiol linkage (NWYLPWLGTNDWGGGSC(siRNA); not fully specified; reading uncertain)”, the “intracellular delivery of peptide-siRNA conjugates” value in the experiment on iDCs (confocal microscopy) is recorded as “confirmed the intracellular delivery”. For the same molecule, the “binding of peptide siRNA conjugates to DCs” value in the experiment on iDCs (epifluorescence microscopy, iDCs) is recorded as “bound to DCs”.

What is called IC50 is the concentration needed to halve the response being measured. The low end stands for inhibition by little substance, the high end for a need for much substance. In experiment [6], NWYLPWLGTNDWC (also: carries 6-iodoacetamidofluorescein in direct binding assays) [NW peptide] registered an IC50 of 500 nM.

NWYLPWLGTAAW [N10D11 double mutant] registered a mean fluorescence of bound NW phage at C3 concentration in [7] of 250.

With NWYLPWLGTW [NW peptide with deletion of N10D11], the fold reduction in IC50 against the NW peptide in experiment [8] is 20 fold.
